38 compounds from patent publication US6242494A, “Substituted β-amino acid inhibitors of methionine aminopeptidase-2” (Abbott Laboratories, priority 1999, dated 2001) can be followed below.

In this experiment the target is T1, methionine aminopeptidase-2 (MetAP2) (Homo sapiens, UniProt P50579).
T1 construct: made in house; host or cells: insect cells, baculovirus system (secreted, purified from culture supernatant)
Nature of the experiment: Inhibition of MetAP2 enzyme activity (96-well, Met-Ala-Ser substrate, L-amino acid oxidase/peroxidase/ortho-dianisidine, 450 nm). Type of experiment: biochemical. Conditions: pH 7.4, Met-Ala-Ser substrate, 20 minutes.

Setting [1] is: IC50, recombinant MetAP2 4 μg/mL.
Where [2] appears, read: recombinant MetAP2 4 μg/mL, read-out: IC50.

Counter-ions that a name gives are not always drawn. Like-named read-outs stand apart in the source and are kept apart here.

T1 sequence (P50579 whole entry): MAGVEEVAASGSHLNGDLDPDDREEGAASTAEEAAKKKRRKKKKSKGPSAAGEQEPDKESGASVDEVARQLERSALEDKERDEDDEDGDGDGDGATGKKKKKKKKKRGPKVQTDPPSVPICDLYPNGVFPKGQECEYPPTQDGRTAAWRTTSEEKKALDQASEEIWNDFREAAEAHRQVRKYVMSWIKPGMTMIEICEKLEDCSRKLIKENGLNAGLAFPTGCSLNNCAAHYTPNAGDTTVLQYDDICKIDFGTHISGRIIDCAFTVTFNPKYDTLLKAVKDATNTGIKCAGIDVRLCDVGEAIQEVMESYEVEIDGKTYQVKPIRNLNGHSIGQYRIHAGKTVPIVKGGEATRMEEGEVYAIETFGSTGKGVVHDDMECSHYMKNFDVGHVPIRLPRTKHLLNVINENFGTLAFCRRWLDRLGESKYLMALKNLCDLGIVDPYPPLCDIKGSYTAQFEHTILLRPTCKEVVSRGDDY

The IC50 is the concentration that gives 50% inhibition. Turning to `CCOC(=O)C1CCN(C(=O)C(O)[C@H](N)CC2CCCCC2)CC1` (stereo partly drawn) [Example 73, ((2RS,3R)-3-amino-2hydroxy-4-cyclohexyl)butanoyl-(ethylisonipecotate)amide hydrochloride], under setting [1], the IC50 was found to be 6800 nM.

As for `N[C@H](CC1CCCCC1)C(O)C(=O)NCCCn1ccnc1` (stereo partly drawn) [Example 74, ((2RS,3R)-3-amino-2-hydroxy-4-cyclohexyl)butanoyl-(3-imidazolylpropyl)amidedihydrochloride], the IC50 under setting [1] came to 30000 nM.

For `C[C@H](NC(=O)C(O)[C@H](N)CC1CCCCC1)c1nc(C(=O)O)cs1` (stereo partly drawn) [Example 75, (2RS,3R)-3-amino-2-hydroxy-4-cyclohexyl)butanoyl-(4-carboxyl-2-(1'amino)ethyl thizole hydrochloride], the concentration for half-maximal inhibition (IC50) under setting [1] was determined as 9400 nM.

Take `N[C@H](CC1CCCCC1)C(O)C(=O)NCCCCNC(=O)OCc1ccccc1` (stereo partly drawn) [Example 77, (2RS,3R)-3-amino-2-hydroxy-4-cyclohexyl)butanoyl-(4-benzloxycarbonylamino)butylamide hydrochloride]: the IC50 under setting [1] was determined as 3300 nM.

For the compound `N[C@H](CC1CCCCC1)C(O)C(=O)NCCNC(=O)OCc1ccccc1` (some centres unmarked) [Example 78, hydrochloride], the IC50 under setting [1] amounted to 1800 nM.

With `CCSCC[C@@H](N)C(O)C(=O)NCCCCCNS(=O)(=O)c1cccc2c(N(C)C)cccc12` (some centres unmarked) [Example 79, dihydrochloride], the concentration for half-maximal inhibition (IC50) under setting [1] was 100 nM.

Take `Cc1ccc(S(=O)(=O)NCCCCNC(=O)C(O)[C@H](N)CC2CCCCC2)cc1` (stereo partly drawn) [Example 80, (2RS,3R)-3-amino-2-hydroxy-4-cyclohexyl)butanoyl-(4-(4-toluenesulfonyl)aminobutyl)amide hydrochloride]: the half-inhibitory concentration (IC50) under setting [1] amounted to 1300 nM.

As to `Cc1ccc(S(=O)(=O)NCCNC(=O)C(O)[C@H](N)CC2CCCCC2)cc1` (stereo partly drawn) [Example 81, (2RS,3R)-3-amino-2-hydroxy-4-cyclohexyl)butanoyl-(2-4-toluenesulfonylaminoethyl)amide hydrochloride], the IC50 under setting [1] is 1800 nM.

For `NCCCCNC(=O)C(O)[C@H](N)CC1CCCCC1` (stereo partly drawn) [Example 82, (2RS,3R)-3-amino-2-hydroxy-4-cyclohexyl)butanoyl-(4-aminobutyl)amide dihydrochloride], the IC50 under setting [1] stood at 38000 nM.

For the compound `NCCNC(=O)C(O)[C@H](N)CC1CCCCC1` (stereo partly drawn) [Example 83, (2RS,3R)-3-amino-2-hydroxy-4-cyclohexyl)butanoyl-(2-aminoethyl)amide dihydrochloride], the IC50 under setting [1] came out at 26000 nM.

For the compound `CC(=O)Nc1ccc(S(=O)(=O)NCCCCNC(=O)C(O)[C@H](N)CC2CCCCC2)cc1` (stereo partly drawn) [Example 86, (2RS,3R)-N-(4-(((4-(acetylamiono)phenyl)sulfonyl)amino)butyl)-3-amino-4-cyclohexyl-2-hydroxybutanamide hydrochloride], the IC50 under setting [1] came out at 1700 nM.

For the compound `N[C@H](CC1CCCCC1)C(O)C(=O)NCCc1ccc(S(N)(=O)=O)cc1` (stereo partly drawn) [Example 88, (2RS,3R)-3-amino-2-hydroxy-4-cyclohexyl)butanoyl-L-alanine-4-sulfonamide benzyl ester hydrochloride], the IC50 under setting [1] was determined as 2200 nM.

With `CC(C)(NC(=O)C(O)[C@H](N)CC1CCCCC1)C(=O)OCc1ccccc1` (some centres unmarked) [Example 89, Hydrochloride], under setting [1], the IC50 was found to be 6600 nM.

`C[C@H](NC(=O)C(O)[C@H](N)CC1CCCCC1)C(=O)OC1CCCCC1` (stereo partly drawn) [Example 90, (2RS,3R)-3-Amino-2-hydroxy-4-cyclohexyl)butanoyl-L-alanine Cyclohexyl Ester Hydrochloride]: the IC50 under setting [1] came out at 2300 nM.

For the compound `C[C@H](NC(=O)C(O)[C@H](N)CC1CCCCC1)C(=O)OCc1ccccc1CS(=O)(=O)c1ccccc1` (stereo partly drawn) [Example 91, (2RS,3R)-3-Amino-2-hydroxy-4-cyclohexyl)butanoyl-L-alanine-2-((phenylsulfonyl)methyl)benzyl Ester Hydrochloride], under setting [1], the IC50 is 2300 nM.

Consider `C[C@H](NC(=O)C(O)[C@H](N)CC1CCCCC1)C(=O)OCc1ccc(C(C)(C)C)cc1` (stereo partly drawn) [Example 93, (2RS,3R)-3-Amino-2-hydroxy-4-cyclohexyl)butanoyl-L-alanine 4-tert-butylbenzyl Ester Hydrochloride], for which the IC50 under setting [1] amounted to 5400 nM.

Regarding `COC(=O)c1ccc(COC(=O)[C@H](C)NC(=O)C(O)[C@H](N)CC2CCCCC2)cc1` (stereo partly drawn) [Example 94, (2RS,3R)-3-Amino-2-hydroxy-4-cyclohexyl)butanoyl-L-alanine 4-methoxycarbonylbenzyl Ester Hydrochloride], under setting [1], the IC50 stood at 910 nM.

`C[C@H](NC(=O)C(O)[C@H](N)CC1CCCCC1)C(=O)OCc1ccc(C(F)(F)F)cc1` (stereo partly drawn) [Example 95, (2RS,3R)-3-Amino-2-hydroxy-4-cyclohexyl)butanoyl-L-alanine 4-trifluoromethylbenzyl Ester Hydrochloride]: under setting [1], the IC50 turned out to be 5200 nM.

On to `C[C@H](NC(=O)C(O)[C@H](N)CC1CCCCC1)C(=O)OCc1ccc(CC(=O)OCC(=O)c2ccccc2)cc1` (stereo partly drawn) [Example 96, (2RS,3R)-3-Amino-2-hydroxy-4-cyclohexyl)butanoyl-L-alanine-(4-(methyl)phenyl Acetic Acid Phenacyl Ester) Hydrochloride], for which, under setting [1], the IC50 amounted to 2900 nM.

On to `N[C@H](CC1CCCCC1)C(O)C(=O)NCc1ccc(Cl)cc1Cl` (stereo partly drawn) [Example 97, (2RS,3R)-3-Amino-4-cyclohexyl)-N-(2,4-dichlorobenzyl)-2-hydroxybutanamide Hydrochloride], for which, under setting [1], the IC50 amounted to 3000 nM.

With `CC(NC(=O)C(O)[C@H](N)CC1CCCCC1)c1cccc2ccccc12` (stereo partly drawn) [Example 101, (2RS,3R,1'RS)-3-Amino-4-cyclohexyl-2-hydroxy-N-(1-(1-naphthyl)ethyl)butanamide Hydrochloride], the IC50 under setting [1] is 310 nM.

For the compound `C[C@H](NC(=O)C(O)[C@H](N)Cc1ccccc1)C(=O)OCc1ccccc1` (some centres unmarked) [Example 105, Hydrochloride], the IC50 under setting [1] is 19000 nM.

As for `CCCC[C@H](NC(=O)C(O)[C@H](N)CC1CCCCC1)C(=O)OC` (stereo partly drawn) [Example 129, methyl (2RS,3R,2'S)-2-((3-amino-4-cyclohexyl-2-hydroxybutanoyl)amino)hexanoate hydrochloride], under “recombinant MetAP2 4 μg/mL”, the IC50 came to 27000 nM.

As to `CCOC(=O)[C@H](CF)NC(=O)C(O)[C@H](N)CC1CCCCC1` (stereo partly drawn) [Example 135, ethyl (2RS,3R,2'R)-2-((3-amino-4-cyclohexyl-2-hydroxybutanoyl)amino)-3-fluoropropanoate trifluoroacetate], the concentration for half-maximal inhibition (IC50) under setting [1] came out at 3200 nM.

As for `CC(C)(C)c1ccc(COC(=O)[C@@H](CO)NC(=O)C(O)[C@H](N)CC2CCCCC2)cc1` (stereo partly drawn) [Example 137, 4-(tert-butyl)benzyl (2RS,3R,2'R)-2-((3-amino-4-cyclohexyl-2-hydroxybutanoyl)amino-3-hydroxypropanoate trifluoroacetate], the IC50 under setting [1] worked out at 8400 nM.

Regarding `N[C@H](CC1CCCCC1)C(O)C(=O)N[C@@H](CO)C(=O)OCc1ccc([N+](=O)[O-])cc1` (stereo partly drawn) [Example 138, 4-nitrobenzyl (2RS,3R,2'S)-2-((3-amino-4-cyclohexyl-2-hydroxybutanoyl)amino-3-hydroxypropanoate trifluoroacetate], under setting [1], the IC50 was 1600 nM.

Consider `N[C@H](CC1CCCCC1)C(O)C(=O)N[C@@H](CO)C(=O)OCc1cccc([N+](=O)[O-])c1` (stereo partly drawn) [Example 139, 3-nitrobenzyl (2RS,3R,2'S)-2-((3-amino-4-cyclohexyl-2-hydroxybutanoyl)amino)-3-hydroxypropanoate trifluoroacetate], for which, under setting [1], the IC50 was found to be 1700 nM.

For the compound `N[C@H](CC1CCCCC1)C(O)C(=O)N[C@@H](CO)C(=O)OCc1ccc(C(F)(F)F)cc1` (stereo partly drawn) [Example 140, 4-(trifluoromethyl)benzyl (2RS,3R,2'S)-2-((3-amino-4-cyclohexyl-2-hydroxybutanoyl)amino)-3-hydroxypropanoate trifluoroacetate], the IC50 under setting [1] was 2200 nM.

Take `N[C@H](CC1CCCCC1)C(O)C(=O)N[C@@H](CO)C(=O)OCc1cccc(OC(F)(F)F)c1` (stereo partly drawn) [Example 141, 3-(trifluoromethoxy)benzyl (2RS,3R,2'S)-2-((3-amino-4-cyclohexyl-2-hydroxybutanoyl)amino)-3-hydropropanoate trifluoroacetate]: under setting [1], the IC50 worked out at 3700 nM.

For the compound `CC(C)(C)c1ccc(NC(=O)C(O)[C@H](N)CC2CCCCC2)cc1` (some centres unmarked) [Example 150], the IC50 under setting [1] is 3100 nM.

Turning to `CC(C)(C)c1ccc(CNC(=O)C(O)[C@H](N)CC2CCCCC2)cc1` (stereo partly drawn) [Example 156, (2RS,3R)-3-amino-N-(4-tert-butyl)benzyl-4-cyclohexyl-2-hydroxybutanamide], the IC50 under setting [1] is 3900 nM.

Take `N[C@H](CC1CCCCC1)C(O)C(=O)NCc1cccc(C(F)(F)F)c1` (some centres unmarked) [Example 157]: the half-maximal inhibitory concentration (IC50) under setting [1] worked out at 1600 nM.

Take `N[C@H](CC1CCCCC1)C(O)C(=O)NCCc1c(Cl)cccc1Cl` (stereo partly drawn) [Example 165, (2RS,3R)-3-amino-4-cyclohexyl-N-(2,6-dichlorophenethyl)-2-hydroxybutanamidehydrochloride]: under setting [1], the IC50 is 260 nM.

Consider `N[C@H](CC1CCCCC1)C(O)C(=O)Nc1ccccc1OC(F)(F)F` (stereo partly drawn) [Example 169, (2RS,3R)-3-amino-4-cyclohexyl-2-hydroxy-N-(2-(trifluoromethoxy)phenyl)butanamide hydrochlordie], for which the IC50 under setting [1] stood at 3300 nM.

As to `CC(C)CCCC(C)NC(=O)C(O)[C@H](N)CC1CCCCC1` (stereo partly drawn) [Example 211, (2RS,3R)-3-amino-4-cyclohexyl-N-(1.5-dimethylhexyl)-2-hydroxybutanamide Hydrochloride], the IC50 under setting [1] is 2400 nM.

Turning to `N[C@H](CC1CCCCC1)C(O)C(=O)NCc1cccc2ccccc12` (stereo partly drawn) [Example 235, (2RS,3R)-3-amino-4-cyclohexyl-2-hydroxy-N-(1-napthylmethyl)butanamide Hydrochloride], the half-maximal inhibitory concentration (IC50) under setting [1] amounted to 970 nM.

Take “(2RS,3R)-3-Amino-2-hydroxy-4-cyclohexyl)butanoyl-L-alanine Cyclopropyl Ester Hydrochloride [Example 92]”: the IC50 under setting [2] was found to be 1400 nM.

With “(((2RS,3R)-3-amino-4cyclohexyl-2-hydroxybutanoyl)amino)(2,5-dimethoxybenzyl)chloronium hydrochloride [Example 163]”, the IC50 under setting [2] was 480 nM.
